Among the test systems are SR leukemia; U251 CNS; NCI-H226 lung; HT29 colon; MCF7 breast; OVCAR-8 ovarian; IGROV1 ovarian; OVCAR-4 ovarian; SK-MEL-2 melanoma; UO-31 renal.
Holding throughout (test): DTP human tumour cell line panel, 48 h

Several values for one entry are separate records, joined by “and”; a condition that tells them apart may be missing. Equal values may be shown once.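 96-well plates; 48 h exposure; 5 concentrations. Endpoints by linear interpolation between flanking doses. Not reached: highest tested concentration assigned. GI50 is the concentration that inhibits growth by half. TGI: total growth inhibition.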

As for `Nc1ccn([C@@H]2S[C@H](CO)[C@@H](O)[C@@H]2F)c(=O)n1`, the GI50 in the test with SR leukemia was 0.0575 µM; in the test with U251 CNS, 0.367 µM; with NCI-H226 lung, 0.485 µM; in the test with HT29 colon it was 0.178 µM; in the test with MCF7 breast it was 0.0545 µM; in the test on OVCAR-8 ovarian, 0.026 µM. In addition, the GI50 was 0.74 µM in the test on IGROV1 ovarian, above 100 µM in the test on OVCAR-4 ovarian, above 100 µM with SK-MEL-2 melanoma and 0.0356 µM in the test with UO-31 renal. Besides, the TGI in the test with SR leukemia was above 100 µM; with U251 CNS, above 100 µM; with NCI-H226 lung, above 48.4 µM; in the test with HT29 colon it was above 100 µM; with MCF7 breast, above 100 µM; with OVCAR-8 ovarian, above 100 µM. Moreover, the TGI with IGROV1 ovarian, with OVCAR-4 ovarian and with SK-MEL-2 melanoma was above 100 µM throughout.
As for `O=CC(O)C(O)C(OC1OC(CO)C(O)C(O)C1O)C(O)CO` (configuration not stated) (tested in a mixture with another compound), the total growth inhibition concentration (TGI) with SR leukemia is 33.1 µM; with U251 CNS it was above 100 µM; in the test on NCI-H226 lung it was above 100 µM; in the test with HT29 colon it was above 100 µM; in the test with MCF7 breast, above 100 µM; in the test on OVCAR-8 ovarian, above 100 µM. Also, the TGI in the test on IGROV1 ovarian was 71.9 µM; in the test on OVCAR-4 ovarian, above 100 µM; in the test on SK-MEL-2 melanoma it was above 100 µM; in the test with UO-31 renal, above 100 µM.
For `COc1cc2c(cc1OC)C(SC)C(=O)N(Cc1cccc(OC)c1OC)CC2` (configuration not stated), the TGI in the test on SR leukemia is 24.1 µM; in the test with U251 CNS it was above 69.3 µM; in the test on NCI-H226 lung it was 26.8 µM; with HT29 colon, 17.1 µM; in the test on MCF7 breast, above 42.6 µM; in the test with OVCAR-8 ovarian, 70.9 µM. For the same molecule, the TGI was above 90.8 µM in the test with IGROV1 ovarian, 98.5 µM in the test on OVCAR-4 ovarian, 19.1 µM with SK-MEL-2 melanoma and 70 µM in the test with UO-31 renal.
As to `C=CC[PH+](c1ccccc1)c1ccccc1.C=CC[PH+](c1ccccc1)c1ccccc1.[Pt+2].[S-]c1ncccn1.[S-]c1ncccn1`, the GI50 was 3.11 µM with SR leukemia; 23.4 µM in the test on U251 CNS; 16.6 µM with NCI-H226 lung; 13.5 µM in the test with HT29 colon; 4.8 µM in the test with MCF7 breast; 4.44 µM in the test on OVCAR-8 ovarian. Moreover, the GI50 with IGROV1 ovarian is 15.1 µM; with OVCAR-4 ovarian, 5.35 µM; in the test on SK-MEL-2 melanoma it was 47.4 µM; in the test on UO-31 renal, 3.75 µM. The TGI with SR leukemia was 60.7 µM; in the test with U251 CNS, above 100 µM; in the test on NCI-H226 lung, 39.9 µM; with HT29 colon, above 100 µM; in the test with MCF7 breast, above 100 µM; in the test with OVCAR-8 ovarian it was above 100 µM. The TGI in the test with IGROV1 ovarian is 43.8 µM; in the test on OVCAR-4 ovarian, above 100 µM; with SK-MEL-2 melanoma, above 100 µM; in the test with UO-31 renal it was 18 µM.
Regarding `CCN(CC)Cc1cc(Nc2cc(C(F)(F)F)c(C#N)c3nc4ccccc4n23)ccc1O`, the GI50 was 3.72 µM in the test with SR leukemia; 1.5 µM in the test on U251 CNS; 1.34 µM with NCI-H226 lung; 2.5 µM in the test on HT29 colon; 1.75 µM with MCF7 breast; 2.68 µM with OVCAR-8 ovarian. In addition, the GI50 in the test on OVCAR-4 ovarian was 1 µM; in the test with SK-MEL-2 melanoma, 1.35 µM; with UO-31 renal, 1.12 µM. The TGI is above 100 µM with SR leukemia; 6.47 µM with U251 CNS; 10.4 µM with NCI-H226 lung; 12.2 µM in the test on HT29 colon; 10.7 µM with MCF7 breast; 12.6 µM with OVCAR-8 ovarian. The total growth inhibition concentration (TGI) stood at 2.59 µM in the test on OVCAR-4 ovarian, 7.81 µM in the test on SK-MEL-2 melanoma and 3.1 µM in the test on UO-31 renal.
Consider `CCc1ccc(C2=NN(c3ccc(S(C)(=O)=O)cc3)C(=O)CC2)cc1`, for which the GI50 in the test with SR leukemia was 0.42 µM; in the test with U251 CNS it was 1.83 µM; in the test with NCI-H226 lung, 14.6 µM; in the test with HT29 colon, 0.411 µM; with MCF7 breast it was 3.04 µM; in the test on OVCAR-8 ovarian, 2.87 µM. The GI50 was 2.71 µM in the test on IGROV1 ovarian, 7.14 µM in the test on OVCAR-4 ovarian, 1.24 µM in the test on SK-MEL-2 melanoma and 4.89 µM with UO-31 renal. For the same molecule, the TGI was 21.7 µM with SR leukemia; above 100 µM with U251 CNS; above 100 µM with NCI-H226 lung; 13.4 µM in the test with HT29 colon; above 91.6 µM in the test with MCF7 breast; above 81.8 µM in the test on OVCAR-8 ovarian. Besides, the TGI is above 74.3 µM in the test on IGROV1 ovarian, above 91.5 µM with OVCAR-4 ovarian, 98.4 µM with SK-MEL-2 melanoma and above 100 µM in the test on UO-31 renal.
Take `Oc1c(I)cc(Cl)c2cccnc12`: the GI50 with SR leukemia was 3.15 µM; in the test on U251 CNS, 3.9 µM and 3.65 µM; with NCI-H226 lung, 3.02 µM and 2.66 µM; in the test with HT29 colon, 11.3 µM and 6.1 µM; with MCF7 breast, 3.24 µM and 6.36 µM; with OVCAR-8 ovarian it was 3.96 µM and 27.2 µM. Moreover, the GI50 was 3.91 µM and 13 µM with IGROV1 ovarian; 2.82 µM and 4.39 µM with OVCAR-4 ovarian; 11 µM and 14.7 µM with SK-MEL-2 melanoma; 2.35 µM and 22.1 µM with UO-31 renal. Also, the concentration for total growth inhibition (TGI) in the test with SR leukemia was 8.61 µM; with U251 CNS, > 100 µM and 32.8 µM; with NCI-H226 lung it was 20 µM and 8.8 µM; in the test on HT29 colon, above 100 µM; in the test on MCF7 breast it was 41.3 µM and > 100 µM; in the test with OVCAR-8 ovarian, > 100 µM and 99.3 µM. Besides, the TGI in the test with IGROV1 ovarian was 24.2 µM and 36.5 µM; in the test with OVCAR-4 ovarian, 13.8 µM and > 100 µM; with SK-MEL-2 melanoma it was > 100 µM and 41.3 µM; in the test on UO-31 renal, 11.5 µM and 52.9 µM.
On to `Cc1ccc(-c2nc(C(Cl)Cl)nc3cc(C)nn23)cc1`, for which the GI50 with SR leukemia is 0.342 µM; with NCI-H226 lung it was above 100 µM; with HT29 colon, 0.458 µM; with MCF7 breast it was 1.97 µM; with OVCAR-8 ovarian, 1.67 µM; in the test on OVCAR-4 ovarian, 1.07 µM. Moreover, the GI50 is above 100 µM in the test with SK-MEL-2 melanoma and 3.38 µM in the test on UO-31 renal. Also, the TGI in the test with SR leukemia was above 100 µM; in the test with NCI-H226 lung it was above 100 µM; with HT29 colon, above 100 µM; with MCF7 breast, above 100 µM; in the test on OVCAR-8 ovarian it was above 100 µM; with OVCAR-4 ovarian, 3.87 µM. The TGI in the test with SK-MEL-2 melanoma and in the test on UO-31 renal was above 100 µM throughout.
On to `CN(C)CCS(=O)(=O)Nc1cc(-c2ccc3ncnc(Nc4ccc(F)c(Cl)c4)c3c2)cnc1Cl`, for which the GI50 is 0.809 µM with SR leukemia; 0.85 µM in the test on U251 CNS; 2.11 µM in the test on NCI-H226 lung; 0.292 µM in the test on MCF7 breast; 1.77 µM in the test with OVCAR-8 ovarian; 0.0859 µM in the test with IGROV1 ovarian. The figures for the GI50 in the test on OVCAR-4 ovarian, with SK-MEL-2 melanoma and in the test with UO-31 renal were 1.29 µM, 0.715 µM and 0.259 µM, respectively. Moreover, the TGI with U251 CNS is 2.91 µM; with NCI-H226 lung, above 100 µM; in the test on MCF7 breast, above 100 µM; with OVCAR-8 ovarian, above 51.7 µM; with IGROV1 ovarian it was 0.38 µM; in the test on OVCAR-4 ovarian, above 100 µM. The total growth inhibition concentration (TGI) in the test with SK-MEL-2 melanoma worked out at 2.74 µM; with UO-31 renal it was 1.69 µM.
As for `CC(=O)OC1COC(Oc2c(C)c3c4c(c2O)[C@@H](C)CC[C@@H]4[C@@H](C)C[C@H]3C=C(C)C)C(O)C1O` (some centres not stated), the GI50 with SR leukemia was 9.13 µM; in the test with U251 CNS it was 19.5 µM; in the test on NCI-H226 lung it was 21.8 µM; in the test with MCF7 breast it was 20.7 µM; in the test with OVCAR-8 ovarian, 20.6 µM; in the test on IGROV1 ovarian it was 20.1 µM. The GI50 in the test on OVCAR-4 ovarian was 25.6 µM; with SK-MEL-2 melanoma, 47.1 µM; in the test on UO-31 renal, 25.1 µM. Further, the concentration for total growth inhibition (TGI) with SR leukemia is 25.7 µM; in the test on U251 CNS, 41.6 µM; in the test with NCI-H226 lung, 52.3 µM; in the test with MCF7 breast it was above 100 µM; in the test with OVCAR-8 ovarian, 50.3 µM; in the test with IGROV1 ovarian, above 100 µM. Besides, the results for the TGI in the test with OVCAR-4 ovarian, with SK-MEL-2 melanoma and with UO-31 renal were 86.5 µM, above 100 µM and above 100 µM, respectively.
In the case of `CCN(CC)CCCNc1c2ccc(Cl)cc2nc2ccc(OC)cc12`, the GI50 in the test with SR leukemia was 0.029 µM; with NCI-H226 lung, 1.84 µM; with HT29 colon, 0.033 µM; in the test on MCF7 breast it was 0.0377 µM; with OVCAR-8 ovarian it was 0.0552 µM; in the test on OVCAR-4 ovarian, 0.0304 µM. The GI50 in the test on SK-MEL-2 melanoma was 1.69 µM; with UO-31 renal it was 1.63 µM. For the same molecule, the TGI with SR leukemia turned out to be 3.67 µM; in the test with NCI-H226 lung, 4.88 µM; with HT29 colon, 1.56 µM; with MCF7 breast, 3.16 µM; with OVCAR-8 ovarian, 3.44 µM; with OVCAR-4 ovarian, 2.77 µM. Also, the TGI came to 3.31 µM in the test on SK-MEL-2 melanoma and 4.83 µM in the test with UO-31 renal.
`O=S(=O)(NCCCNc1nccc(-c2c(-c3cccc(F)c3)nc3occn23)n1)c1cccc2ccccc12`: the GI50 in the test with SR leukemia was 8.79 µM; in the test on U251 CNS it was 8.89 µM; with NCI-H226 lung, 5.12 µM; with MCF7 breast, 4.07 µM; in the test with OVCAR-8 ovarian, 7.02 µM; with IGROV1 ovarian it was 3.33 µM. Further, the figures for the GI50 in the test on OVCAR-4 ovarian, with SK-MEL-2 melanoma and in the test on UO-31 renal were 7.66 µM, 6.99 µM and 3.25 µM, respectively. Moreover, the TGI in the test on SR leukemia, with U251 CNS, in the test on NCI-H226 lung, with MCF7 breast, in the test on OVCAR-8 ovarian and in the test with IGROV1 ovarian was above 100 µM in each case. The TGI in the test on OVCAR-4 ovarian, with SK-MEL-2 melanoma and with UO-31 renal was above 100 µM in each case.

The term GI50 denotes the concentration that inhibits growth by half. The TGI is the concentration giving total growth inhibition. Lower therefore signals greater sensitivity of the cells.
